Entries after “also recorded” stand apart in the source; their conditions may differ.
Legend:
[1] = system: U-2 OS cells (actin fibers); experiment: Signal-to-noise ratio (fibers/cytosol) in U-2 OS cells; assay type: cell-based, human; settings: EGFP fusions, compared with WT F-tractin
U-2 OS cells [2] = experiment: Nuclear signal enrichment in U-2 OS cells; assay type: cell-based, human; settings: EGFP fusions
U-2 OS cells [3] = experiment: FRAP recovery half time in U-2 OS cells; assay type: cell-based, human; settings: EGFP fusions
F-actin [4] = experiment: Actin bundling assay using low-speed centrifugation (10,000 g); assay type: biochemical, rabbit skeletal muscle α-actin; settings: for F-actin in the pellet: 10 μM actin filaments, 5 min RT, 10,000 g
Protocol: (§1) Rabbit skeletal muscle α-actin was purified from muscle acetone powder (Pel-Freez Biologicals) as described in [Merino et al. (2018)] and stored in 50 μl aliquots at −70°C.
8 μl of actin filaments at 10 μM were mixed with peptides at the specified concentration, incubated for 5 min at room temperature, and spun down at 10,000 g for 10 min at 4°C. Aliquots of the supernatant and resuspended pellet fractions were separated on SDS-polyacrylamide gels with 2,2,2-trichloroethanol ([Ladner-Keay et al., 2018]) and visualized with ultraviolet light.

F-actin [5] = experiment: High-speed cosedimentation with F-actin (120,000 g), SDS-PAGE densitometry; assay type: binding, rabbit skeletal muscle α-actin; settings: for Fraction bound: 2 μM mCherry fusion
Protocol: as §1
A single colony was inoculated into 200 ml of LB media and grown at 37°C. At OD600 0.6–1.0, protein expression was induced by the addition of IPTG to a final concentration of 0.02 mM. After 16 h of expression at 22°C, the cells were harvested by centrifugation, resuspended in TBS (20 mM Tris pH 8 and 150 mM NaCl), and lysed by sonication. The soluble fraction was applied on TBS-equilibrated Protino Ni-IDA resin (Macherey-Nagel), washed, eluted with TBS supplemented with 250 mM imidazole, dialyzed against TBS, and stored at −20°C.
Freshly thawed mammalian α-actin was spun down at 120,000 g for 20 min at 4°C using a TLA-120.1 rotor, and the supernatant containing G-actin was collected. The protein was then polymerized by incubation in F buffer (120 mM KCl, 20 mM Tris pH 8, 2 mM MgCl2, 1 mM DTT, and 1 mM ATP) for 2 h on ice. Cosedimentation assays were performed in 20 μl volumes by first incubating F-actin with F-tractinopt-mCherry fusions for 5 min at room temperature and then centrifuging at 120,000 g using the TLA-120.1 rotor for 20 min at 4°C. After centrifugation, aliquots of the supernatant and resuspended pellet fractions were separated on SDS-polyacrylamide gels with 2,2,2-trichloroethanol ([Ladner-Keay et al., 2018]), visualized under ultraviolet light, and analyzed by densitometry using ImageJ (RRID:SCR_003070). The Kd values were calculated using GraphPad Prism software (RRID:SCR_002798).

[6] = system: actin (ADP-ribosylation by TcART, Photorhabdus luminescens); experiment: ADP-ribosylation of actin by TcART in presence of actin-binding peptides; assay type: biochemical, rabbit skeletal muscle α-actin; settings: for ADP-ribosylation level: relative to no peptide = 1, […] actin, 314 pM TcART, 10 min 37°C; for effect on TcART modification of F-actin (in words): peptides up to 100 µM
Protocol: as §1
TcART, the ADP-ribosyltransferase from P. luminescens Tc toxin, was purified from E. coli BL21-CodonPlus(DE3)-RIPL harboring the plasmid pB656 as described previously ([Belyy et al., 2022]).
A total of 8-μl mixtures of 2 μg (4.8 μM final concentration) actin and actin-binding peptides at specified concentrations were preincubated for 5 min at room temperature in the buffer containing 1 mM NAD, 20 mM Tris pH 8, 150 mM NaCl, and 1 mM MgCl2. The ADP ribosylation reaction was initiated by the addition of 0.2 ng (314 pM) of TcART to the mixture. After 10 min of incubation at 37°C, the reaction was stopped by adding Laemmli sample buffer and heating the sample at 95°C for 5 min. The components of the mixture were separated by SDS-PAGE, blotted onto a polyvinylidene difluoride (PVDF) membrane using a Trans-Blot Turbo Transfer System (Bio-Rad), and visualized using a combination of the His-tagged ADP-ribose binding protein at the concentration of 0.01 mg/ml and HisProbe-HRP conjugate. The level of actin ADP-ribosylation was quantified by densitometry using ImageJ.

[7] = system: U-2 OS cells (phalloidin-stained actin); experiment: Colocalization with phalloidin in U-2 OS cells (Pearson correlation); assay type: cell-based, human; settings: EGFP fusions
[8] = ref Coluccio and Tilney, 1984; cited from earlier work
Excerpt: Phalloidin, a cyclic peptide derived from the fungus Amanita phalloides, was one of the first probes used for F-actin labeling ([Wehland et al., 1977]; [Wulf et al., 1979]). […] The need to visualize actin dynamics led to the development of genetically encoded fluorescent probes. Chimeras of green fluorescent protein ...

F-actin [9] = settings: ref Melak et al., 2017; cited from earlier work
Excerpt: Phalloidin, a cyclic peptide derived from the fungus Amanita phalloides, was one of the first probes used for F-actin labeling ([Wehland et al., 1977]; [Wulf et al., 1979]). […] The need to visualize actin dynamics led to the development of genetically encoded fluorescent probes. Chimeras of green fluorescent protein ... || In live cell imaging experiments, F-tractin is typically used as a fusion of fluorescent proteins. […] However, a comparison of both markers has been largely limited to characterizations in cells ([Belin et al., 2014]; [Spracklen et al., 2014]; [Vosatka et al., 2022]). With structures of both probes in complex with F-actin available, we can now directly compare their actin interactions in atomic detail (Fig. 4, A–C). Both probes are at their core amphipathic helices that bind to overlapping interfaces of consecutive actin subunits, indicating a preference for “aged” A ...

APRRSVGELRLLFEARAASAA [F-tractinopt, optimized F-tractin peptide; mCherry fusion in cosedimentation, EGFP fusion in cells]
signal-to-noise ratio between actin fibers and cytosol (in words) [1]: behave very similarly (no | nuclear enrichment (in words) (U-2 OS cells [2]): slightly higher accumulation of F-tractinopt in the nucleus | exchange / recovery in FRAP (in words) (U-2 OS cells [3]): exchanged faster than WT F-tractin; also recorded: FRAP recovery rates | actin bundling (in words) (F-actin [4]; in vitro, up to 100 µM, low-speed centrifugation and cryo-EM): minimal actin bundling | F-actin in the pellet (F-actin [4]; peptide 1 µM, Repeat 1): 0,098435 | F-actin in the pellet (F-actin [4]; peptide 1 µM, Repeat 2): 0,057915 | F-actin in the pellet (F-actin [4]; peptide 1 µM, Repeat 3): 0,103265 | F-actin in the pellet (F-actin [4]; peptide 100 µM, Repeat 1): 0,099007 | F-actin in the pellet (F-actin [4]; peptide 100 µM, Repeat 2): 0,095989 | F-actin in the pellet (F-actin [4]; peptide 100 µM, Repeat 3): 0,158954 | F-actin in the pellet (F-actin [4]; peptide 1000 µM, Repeat 1): 0,238373 | F-actin in the pellet (F-actin [4]; peptide 1000 µM, Repeat 2): 0,117922 | F-actin in the pellet (F-actin [4]; peptide 1000 µM, Repeat 3): 0,212762 | Fraction bound (F-actin [5]; F-actin 2 µM, Repeat 1): 0,113982 | Fraction bound (F-actin [5]; F-actin 2 µM, Repeat 2): 0,125633 | Fraction bound (F-actin [5]; F-actin 2 µM, Repeat 3): 0,150215 | Fraction bound (F-actin [5]; F-actin 5 µM, Repeat 1): 0,211009 | Fraction bound (F-actin [5]; F-actin 5 µM, Repeat 2): 0,27957 | Fraction bound (F-actin [5]; F-actin 5 µM, Repeat 3): 0,318841 | Fraction bound (F-actin [5]; F-actin 10 µM, Repeat 1): 0,480176 | Fraction bound (F-actin [5]; F-actin 10 µM, Repeat 2): 0,433657 | Fraction bound (F-actin [5]; F-actin 10 µM, Repeat 3): 0,418605 | Fraction bound (F-actin [5]; F-actin 20 µM, Repeat 1): 0,569748 | Fraction bound (F-actin [5]; F-actin 20 µM, Repeat 2): 0,578018 | Fraction bound (F-actin [5]; F-actin 20 µM, Repeat 3): 0,523474 | Fraction bound (F-actin [5]; F-actin 40 µM, Repeat 1): 0,557282 | Fraction bound (F-actin [5]; F-actin 40 µM, Repeat 2): 0,621935 | Fraction bound (F-actin [5]; F-actin 40 µM, Repeat 3): 0,643478 | ADP-ribosylation level ([6]; peptide 1 µM, Repeat 1): 1,245716 | ADP-ribosylation level ([6]; peptide 1 µM, Repeat 2): 0,95033 | ADP-ribosylation level ([6]; peptide 1 µM, Repeat 3): 1,419998 | ADP-ribosylation level ([6]; peptide 3 µM, Repeat 1): 1,210256 | ADP-ribosylation level ([6]; peptide 3 µM, Repeat 2): 1,296322 | ADP-ribosylation level ([6]; peptide 3 µM, Repeat 3): 1,29383 | ADP-ribosylation level ([6]; peptide 10 µM, Repeat 1): 0,846657 | ADP-ribosylation level ([6]; peptide 10 µM, Repeat 2): 0,728925 | ADP-ribosylation level ([6]; peptide 10 µM, Repeat 3): 1,078508 | ADP-ribosylation level ([6]; peptide 30 µM, Repeat 1): 0,320904 | ADP-ribosylation level ([6]; peptide 30 µM, Repeat 2): 0,220558 | ADP-ribosylation level ([6]; peptide 30 µM, Repeat 3): 0,140877 | ADP-ribosylation level ([6]; peptide 100 µM, Repeat 1): 0,032604 | ADP-ribosylation level ([6]; peptide 100 µM, Repeat 2): 0,100767 | ADP-ribosylation level ([6]; peptide 100 µM, Repeat 3): 0,002262 | effect on TcART modification of F-actin (in words) [6]: inhibited TcART activity in a similar dose-dependent manner

APRRSVGELRLLAEARAASAA [F29A F-tractinopt, mCherry fusion in cosedimentation, EGFP fusion in cells]
binding to actin in cells (in words) [7]: completely failed to bind to actin in cells | Kd (F-actin [5]; 2 μM probe as mCherry fusion, F-actin titrated, 5 min at room temperature, three independent experiments): > 100 µM | Fraction bound (F-actin [5]; F-actin 2 µM, Repeat 1): 0,02963 | Fraction bound (F-actin [5]; F-actin 2 µM, Repeat 2): 0,031317 | Fraction bound (F-actin [5]; F-actin 2 µM, Repeat 3): 0,036 | Fraction bound (F-actin [5]; F-actin 5 µM, Repeat 1): 0,020561 | Fraction bound (F-actin [5]; F-actin 5 µM, Repeat 2): 0,008869 | Fraction bound (F-actin [5]; F-actin 5 µM, Repeat 3): 0,001393 | Fraction bound (F-actin [5]; F-actin 10 µM, Repeat 1): 0,051546 | Fraction bound (F-actin [5]; F-actin 10 µM, Repeat 2): 0,016783 | Fraction bound (F-actin [5]; F-actin 10 µM, Repeat 3): 0,023887 | Fraction bound (F-actin [5]; F-actin 20 µM, Repeat 1): 0,035971 | Fraction bound (F-actin [5]; F-actin 20 µM, Repeat 2): 0,051087 | Fraction bound (F-actin [5]; F-actin 20 µM, Repeat 3): 0,050633 | Fraction bound (F-actin [5]; F-actin 40 µM, Repeat 1): 0,071269 | Fraction bound (F-actin [5]; F-actin 40 µM, Repeat 2): 0,046373 | Fraction bound (F-actin [5]; F-actin 40 µM, Repeat 3): 0,065217 | affinity for F-actin (in words) (F-actin [5]; cosedimentation, mCherry fusions of F-tractinopt variants): barely detectable in the pellet at the highest concentration of F-actin used | ADP-ribosylation level ([6]; peptide 100 µM, Repeat 1): 0,715886 | ADP-ribosylation level ([6]; peptide 100 µM, Repeat 2): 1,144903 | ADP-ribosylation level ([6]; peptide 100 µM, Repeat 3): 1,162086 | effect on TcART modification of F-actin (in words) [6]: did not interfere with TcART modification of F-actin

Phalloidin
membrane permeability [8]: low membrane permeability | affinity and selectivity for F-actin (F-actin [9]): high affinity and selectivity for F-actin

From paper PMC11809415 (The Journal of Cell Biology, 2025)
